# Columns and labels:
# Plasmepsin II = Plasmepsin II (Plasmodium falciparum, UniProt P46925); experiment: Inhibition of Plasmodium falciparum PLM2 using Lys-Glu-Phe-Val-Phe-NPhe-Ala-Leu-Lys as substrate by spectrophotometry
# [1] = Inhibition of Plasmodium falciparum PLM4 using Lys-Glu-Phe-Val-Phe-NPhe-Ala-Leu-Lys as substrate by spectrophotometry
# [2] = Inhibition of Plasmodium malariae PLM4 using Lys-Glu-Phe-Val-Phe-NPhe-Ala-Leu-Lys as substrate by spectrophotometry
# [3] = Inhibition of Plasmodium ovale PLM4 using Lys-Glu-Phe-Val-Phe-NPhe-Ala-Leu-Lys as substrate by spectrophotometry
# [4] = Inhibition of Plasmodium vivax PLM4 using Lys-Glu-Phe-Val-Phe-NPhe-Ala-Leu-Lys as substrate by spectrophotometry
# Cathepsin D = Cathepsin D (Homo sapiens, UniProt P07339); experiment: Inhibition of human cathepsin D
# Plasmodium falciparum [5] = experiment: microbe, parasite or virus in culture; settings: D10, 72 h
# Description: Antiplasmodial activity against chloroquine-sensitive Plasmodium falciparum D10 after 72 hrs by parasite lactate dehydrogenase assay
# Plasmodium falciparum [6] = experiment: microbe, parasite or virus in culture; settings: W2, 72 h
# Description: Antiplasmodial activity against chloroquine-resistant Plasmodium falciparum W2 after 72 hrs by parasite lactate dehydrogenase assay
# Plasmodium falciparum [7] = experiment: Antiplasmodial activity against chloroquine-sensitive Plasmodium falciparum D10; type: functional, organism-based
# Plasmodium falciparum [8] = experiment: Antiplasmodial activity against chloroquine-resistant Plasmodium falciparum W2; type: functional, organism-based
# [9] = Cytotoxicity against human HDF at 100 uM; settings: HDF cells, read-out: INH
# Sequence of Cathepsin D (P07339 65-162 limits assumed): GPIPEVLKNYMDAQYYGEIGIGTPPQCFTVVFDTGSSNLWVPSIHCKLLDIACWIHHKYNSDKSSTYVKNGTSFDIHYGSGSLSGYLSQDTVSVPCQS
# Sequence of Cathepsin D (P07339 169-412 limits assumed): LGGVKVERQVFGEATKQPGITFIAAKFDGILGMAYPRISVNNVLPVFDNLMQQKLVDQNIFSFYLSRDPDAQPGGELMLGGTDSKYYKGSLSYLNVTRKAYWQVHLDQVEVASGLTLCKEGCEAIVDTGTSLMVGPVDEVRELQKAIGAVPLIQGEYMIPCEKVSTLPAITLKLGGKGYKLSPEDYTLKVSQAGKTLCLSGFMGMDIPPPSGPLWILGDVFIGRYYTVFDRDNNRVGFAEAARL
# Sequence of Plasmepsin II (P46925 whole entry): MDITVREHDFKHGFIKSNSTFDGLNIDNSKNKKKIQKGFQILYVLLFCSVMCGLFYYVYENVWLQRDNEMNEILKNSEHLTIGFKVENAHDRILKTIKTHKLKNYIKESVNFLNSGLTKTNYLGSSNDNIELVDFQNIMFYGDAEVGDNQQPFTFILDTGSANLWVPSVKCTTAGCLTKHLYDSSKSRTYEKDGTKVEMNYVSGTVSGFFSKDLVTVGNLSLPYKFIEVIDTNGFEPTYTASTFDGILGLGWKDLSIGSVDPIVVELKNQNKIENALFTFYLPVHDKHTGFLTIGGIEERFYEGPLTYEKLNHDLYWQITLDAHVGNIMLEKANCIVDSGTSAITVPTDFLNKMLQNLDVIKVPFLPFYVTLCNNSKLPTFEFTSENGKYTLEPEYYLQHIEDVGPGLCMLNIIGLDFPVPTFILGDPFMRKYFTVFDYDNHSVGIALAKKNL
SMILES,Ki (Plasmepsin II),Ki (Plasmepsin II; read-out: Ki) [nM],Ki [1] [nM],Ki [2] [nM],Ki [3] [nM],Ki [4] [nM],IC50 (Cathepsin D) [nM],IC50 (Plasmodium falciparum [5]) [nM],IC50 (Plasmodium falciparum [6]) [nM],IC50 (Plasmodium falciparum [7]) [nM],IC50 (Plasmodium falciparum [8]) [nM],cytotoxicity at 100 µM [9] [%]
CCN(CC)CCCC(C)Nc1ccnc2cc(Cl)ccc12 (configuration not stated) [CHLOROQUINE],Not Active,,,,,,,,,,,
CCCCNC(=O)C[C@H](O)[C@H](CC(C)C)NC(=O)[C@@H](NC(=O)c1ccc(Oc2ccc(C(=O)NCCCNc3ccnc4cc(Cl)ccc34)cc2)cc1)[C@@H](C)CC,,2.3,5.4,0.93,11,0.7,220,177,78,,,
CCCCNC(=O)C[C@H](O)[C@H](CC(C)C)NC(=O)[C@@H](NC(=O)c1ccc(Oc2ccc(C(=O)N[C@@H](CC(C)C)C(=O)N[C@@H](C)C(=O)NCCCNc3ccnc4ccccc34)cc2)cc1)[C@@H](C)CC,,2.6,6.7,0.87,8.1,0.43,300,161,474,,,
CCCCNC(=O)C[C@H](O)[C@H](CC(C)C)NC(=O)[C@@H](NC(=O)c1ccc(Oc2ccc(C(=O)OCc3ccccc3)cc2)cc1)[C@@H](C)CC,,1.9,2.6,2.1,0.34,4.7,,3850,4680,,,
CCCCNC(=O)C[C@H](O)[C@H](CC(C)C)NC(=O)[C@@H](NC(=O)c1ccc(Oc2ccc(C(=O)N[C@@H](CC(C)C)C(=O)N[C@@H](CCCCN)C(=O)NCCCC(C)Nc3cc(OC)cc4cccnc34)cc2)cc1)[C@@H](C)CC (some centres not stated),,0.4,0.5,1.2,10,1.2,,400,700,400,400,50
CCCCNC(=O)C[C@H](O)[C@H](CC(C)C)NC(=O)[C@@H](NC(=O)c1ccc(Oc2ccc(C(=O)NCc3ccccc3)cc2)cc1)[C@@H](C)CC,,1.3,20,5.8,1.1,19,,> 7000,> 7000,,,
CCCCNC(=O)C[C@H](O)[C@H](CC(C)C)NC(=O)[C@@H](NC(=O)c1ccc(Oc2ccc(C(=O)N[C@@H](C)C(=O)NCCCNc3ccnc4cc(Cl)ccc34)cc2)cc1)[C@@H](C)CC,,3.8,8.7,2.4,8.5,0.48,540,114,64,,,
CC(C)C[C@H](NC(=O)OCc1ccccc1)C(=O)N[C@@H](C)C(=O)NCCCNc1ccnc2cc(Cl)ccc12,Not Active,,,,,,,197,1680,,,
